Data from publication PMC11407372, “New imidazolidindionedioximes and their Pt(II) complexes: synthesis and investigation of their antitumoral activities on breast cancer cells” (Turkish Journal of Chemistry, 2024).

Experiments:
[1] = tested on: CCD-1079Sk healthy fibroblast cell line; test: MTT cytotoxicity assay; assay type: cell-based; details: 24 h, mean ± standard deviation
Protocol: (§1) CCD-1079Sk healthy fibroblast cell line, MCF-7, and MDA-MB-231 breast cancer cell lines were used in this study. The cells were grown in DMEM/F12 medium containing 10% fetal bovine serum (FBS) and 100 U/mL penicillin/streptomycin at 37 °C in a humidified incubator with 5% CO2. After bringing 80% confluency, the cells were detached using a trypsin solution. For further experiments, cells were resuspended in the growth medium after collection and centrifugation.
(§2) To determine cytotoxicity, the MTT assay was performed using L1aPt-m, L1bPt-m, L1cPt-m, L1aPt-b, L1bPt-b, L1cPt-b, cisPt, and bicalutamide (bical) samples at 10 different concentrations ranging from 100 μM to 0.19 μM (100, 50, 25, 12.5, 6.25, 3.12, 1.56, 0.78, 0.39, and 0.19 μM). The samples were dissolved in DMSO and diluted with the medium. Initial DMSO concentration was kept below 1% to avoid toxicity from the solvent. Briefly, the cells were seeded to 96-well plates at 5 × 10^3 cells/well in a volume of 200 μL, and cells were inoculated overnight. After that, old medium was removed, 100 μL of fresh medium and 100 μL of sample were added to the wells. The cells were incubated with the samples for 24 h. At the end of incubation with the samples, 30 μL of 3-(4,5-dimethylthiazol-2-yl)-2,5-diphenyltetrazolium bromide (MTT) solution was added. After 3 h the medium was removed and 100 μL of DMSO was added to dissolve the formazan crystals. Then the absorbance values were recorded at 540 nm using an ELISA microplate reader (Synergy H1, BioTek). All the experiments were carried out in triplicates, and the results were presented as a mean ± standard deviation. The IC50 values of samples were calculated using a percentage of relative cell viability via GraphPad Prism 5. The viability percentages of cells were calculated using the following formula:
(§3) %relative cell viability=(Abssample/Abscontrol)×100.

[2] = tested on: MCF-7 human breast cancer cell line; test: MTT cytotoxicity assay; assay type: cell-based; details: mean ± standard deviation
Protocol: as §1, §2, §3

[3] = tested on: MDA-MB-231 human breast cancer cell line; test: MTT cytotoxicity assay; assay type: cell-based; details: mean ± standard deviation
Protocol: as §1, §2, §3

MCF-7 cells [4] = test: Cell cycle assay (PI, flow cytometry); assay type: cell-based, human; details: sample at IC50 concentration, 24 h; 59.5% in control cells
Protocol: (§4) The cell cycle kit was used for the cell cycle experiment. Briefly, the cells were seeded into 12-well plates in a volume of 1 mL at 2 × 10^5 cells/well, and cells were inoculated overnight. After that, 500 μL of fresh medium and 500 μL of the sample at the concentration of IC50 were added to the wells. The cells were incubated with the samples for 24 h, then detached using 0.5 mL of trypsin solution, cells were collected and centrifuged at 3000 g for 3 min. The collecting cells were washed with 1 mL of PBS and fixed with 1 mL of 70% cold ethanol at −20 °C for 24 h. After that, 200 μL of staining solution containing propidium iodide (PI) and RNAse reagents were added to the cells, and the cells were incubated for 30 min in the dark. Cell cycle profiles of synthesized compounds were analyzed using a flow cytometer (BD Accuri C6). The data were analyzed through BD software. Each assay was investigated in triplicate.

MDA-MB-231 cells [5] = test: Cell cycle assay (PI, flow cytometry); assay type: cell-based, human; details: for effect on cell cycle: summary in conclusion, MDA-MB-231 and/or MCF-7; for MDA-MB-231 cell population in the G1-phase: sample at IC50 concentration, 24 h, 24.5% in control cells
Protocol: as §4

CCD-1079Sk cells = test: Apoptosis assay (Annexin V/7-AAD, flow cytometry); assay type: cell-based; details: sample at IC50 concentration, 24 h
Protocol: (§5) FITC-Annexin V/7-AAD kit was used for the apoptosis experiment. Briefly, the cells were seeded into 12-well plates at 2 × 10^5 cells/well in 1 mL volume and cells were inoculated overnight. After that, 500 μL of fresh medium and 500 μL of sample at the concentration of IC50 were added to the wells. The cells were incubated with the samples for 24 h, then detached using 0.5 mL of trypsin solution, cells were collected and centrifuged at 3000 g for 3 min. The cells were washed with 200 μL of cell staining buffer, then dispersed in 100 μL of binding buffer. Following this, 5 μL of FITC-Annexin V and 10 μL of 7-AAD were added, and the mixture was incubated in the dark for 30 min. The samples were then analyzed by flow cytometry.
(§6) The Annexin V conjugated Alexa Fluor 488/7-AAD binding assay is based on the difference in fluorescence intensity between apoptotic and nonapoptotic cells stained with the fluorescent Annexin V/7-AAD, which is measured by flow cytometry. Therefore, an apoptosis assay was performed to determine the rate of live, apoptotic, and necrotic cells (Table 2, Figure S43). It is seen that compounds induce early and late apoptosis in MDA-MB-231 cells.

MCF-7 cells [6] = test: Apoptosis assay (Annexin V/7-AAD, flow cytometry); assay type: cell-based, human; details: sample at IC50 concentration, 24 h
Protocol: as §5
The Annexin V conjugated Alexa Fluor 488/7-AAD binding assay is based on the difference in fluorescence intensity between apoptotic and nonapoptotic cells stained with the fluorescent Annexin V/7-AAD, which is measured by flow cytometry. Therefore, an apoptosis assay was performed to determine the rate of live, apoptotic, and necrotic cells (Table 2, Figure S43). […]

MDA-MB-231 cells [7] = test: Apoptosis assay (Annexin V/7-AAD, flow cytometry); assay type: cell-based, human; details: sample at IC50 concentration, 24 h
Protocol: as §5, §6

Row | SMILES | IC50 [1] [µM] | IC50 ([2]; 24 h) [µM] | IC50 ([3]; 24 h) [µM] | MCF-7 cell population in the G1-phase (MCF-7 cells [4]) [%] | effect on cell cycle (MDA-MB-231 cells [5]) | cell % Apoptotic, CCD-1079Sk (CCD-1079Sk cells) [%] | cell % Necrotic, CCD-1079Sk (CCD-1079Sk cells) [%] | apoptosis induction in MCF-7 cells (MCF-7 cells [6]) | cell % Apoptotic, MCF-7 (MCF-7 cells [6]) [%] | cell % Necrotic, MCF-7 (MCF-7 cells [6]) [%] | cell % Apoptotic, MDA-MB-231 (MDA-MB-231 cells [7]) [%] | cell % Necrotic, MDA-MB-231 (MDA-MB-231 cells [7]) [%] | MDA-MB-231 cell population in the G1-phase (MDA-MB-231 cells [5]) [%] | IC50 ([1]; Fibroblast) [µM] | IC50 ([2]; Homo sapiens, MCF7, 24 h) [µM] | IC50 ([3]; Homo sapiens, MDA-MB-231, 24 h) [µM]
1 | [O-]N=C1C(=NO)N(c2ccc(F)cc2F)CN1c1ccc(F)cc1F.[O-]N=C1C(=NO)N(c2ccc(F)cc2F)CN1c1ccc(F)cc1F.[Pt+2] [L 1c Pt-b] | 73.9 ± 4.96 | 5.9 ± 2.04 | 6.94 ± 5.57 | 64.1 | regulate the cell cycle and increase the G1 population | 1.85 ± 0.03 | 1.80 ± 0.14 | induces more cancerous cells to undergo apoptosis | 2.05 ± 0.03 | 5.35 ± 1.34 | 8.00 ± 0.21 | 3.20 ± 0.14 |  |  |  | 
2 | O[N+]1=C2C(=[N+](O)[Pt-2]1([Cl])[Cl])N(c1ccccc1)CN2c1ccccc1 [L 1a Pt-m] | 59.5 ± 5.34 | 8.97 ± 5.28 | 9.63 ± 7.71 |  | regulate the cell cycle and increase the G1 population | 2.65 ± 0.11 |  | induces more cancerous cells to undergo apoptosis |  | 5.45 ± 1.06 | 9.35 ± 0.46 | 0.65 ± 0.21 | 36.1 |  |  | 
3 | O[N+]1=C2C(=[N+](O)[Pt-2]1([Cl])[Cl])N(c1ccc(F)cc1)CN2c1ccc(F)cc1 [L 1b Pt-m] | 54.6 ± 6.25 | 6.91 ± 3.16 | 8.64 ± 7.71 |  |  |  |  |  | 3.65 ± 0.18 | 0.95 ± 0.21 | 5.95 ± 0.25 | 0.65 ± 0.07 |  |  |  | 
4 | CC(O)(CS(=O)(=O)c1ccc(F)cc1)C(=O)Nc1ccc(C#N)c(C(F)(F)F)c1 (centres unmarked) [Bical, bicalutamide, reference compound] |  |  |  |  |  | 5.10 ± 0.21 |  |  | 2.05 ± 0.03 | 6.35 ± 1.20 | 6.70 ± 0.28 | 1.95 ± 0.21 |  | 9.16 ± 3.18 | 3.78 ± 1.85 | 8.34 ± 6.39
5 | N.N.[Cl][Pt][Cl] [CisPt, cis-diamminedichloroplatinum(II), reference compound] | 27.9 ± 7.24 | 3.98 ± 1.44 | 9.16 ± 7.74 |  |  | 5.00 ± 0.07 | 3.90 ± 0.14 |  | 3.45 ± 0.03 | 1.10 ± 0.14 | 14.95 ± 0.74 | 1.55 ± 0.21 |  |  |  | 
6 | O[N+]1=C2C(=[N+](O)[Pt-2]1([Cl])[Cl])N(c1ccc(F)cc1F)CN2c1ccc(F)cc1F [L 1c Pt-m] | 45.2 ± 5.55 | 5.56 ± 2.39 | 25 ± 6.61 |  |  | 3.45 ± 0.03 | 3.25 ± 0.07 | induces more cancerous cells to undergo apoptosis | 5.95 ± 0.46 | 3.40 ± 0.71 | 6.20 ± 0.14 | 0.55 ± 0.07 |  |  |  | 
7 | [O-]N=C1C(=NO)N(c2ccc(F)cc2)CN1c1ccc(F)cc1.[O-]N=C1C(=NO)N(c2ccc(F)cc2)CN1c1ccc(F)cc1.[Pt+2] [L 1b Pt-b] | 67.9 ± 5.11 | 9.57 ± 5.41 | 9.73 ± 7.28 |  |  | 1.90 ± 0.07 | 1.25 ± 0.07 |  | 2.95 ± 0.11 | 2.20 ± 0.14 | 7.45 ± 0.39 | 2.65 ± 0.07 |  |  |  | 
8 | [O-]N=C1C(=NO)N(c2ccccc2)CN1c1ccccc1.[O-]N=C1C(=NO)N(c2ccccc2)CN1c1ccccc1.[Pt+2] [L 1a Pt-b] | 47.8 ± 6.42 | 5.58 ± 2.29 | 5.26 ± 5.53 | 64.4 | regulate the cell cycle and increase the G1 population | 3.65 ± 0.03 | 4.15 ± 0.21 |  | 4.65 ± 0.81 | 0.95 ± 0.35 | 7.65 ± 0.25 | 1.15 ± 0.07 | 49.6 |  |  | 
